Measured values published in patent US20250059198A1, “BRM DEGRADING COMPOUNDS AND ASSOCIATED METHODS OF USE” (Arvinas Operations, Inc., priority 2021, published 2025).

Target: T1, BRM (Homo sapiens, UniProt P51531)
T1 construct: Western Blot Screen of BRM Degradation in SW1573 Cells; endogenous in cells; host or cells: SW1573 cells
Test: BRM degradation (Dmax and DC50) in SW1573 cells, Western blot screen / In-Cell Western screen
Assay type: cell-based
Conditions: overnight (18-20 hours) treatment; for Dmax: read-out: Dmax (%)** (% degraded)
Protocol: (§1) To assess BRM degradation (Dmax and DC50) cells were seeded at 8000/well in 96-well black/clear-bottom plates in 180 μL DMEM growth media (containing 1% pen-strep, 1% HEPES and 10% FBS) per well. Plates were incubated overnight to allow adhesion. The next morning cells were treated by adding 20 μL of 10× target compound concentration (1% DMSO) to appropriate wells and returned to incubator for overnight (18-20 hours). The final DMSO concentration was 0.1%.
For lysing, adherent cells were washed once with 100 μL of DPBS. Cells were lysed in 40 μL of 1×RIPA+HALT protease inhibitor on ice for 10 minutes and frozen until use at −80° C. Thawed lysates were cleaned by filtration in 1.2 µm filter plates, or alternatively, were spun clean at 2300 g at 4° C. for 30 minutes.
For blotting, for each Western sample 30 μL of lysate was added to 10 μL of 4× LDS sample buffer, then denatured at 95° C. for 5 minutes in the thermal cycler and placed on ice. Samples were loaded on 4-15% Tris/Glycine gels and run for 25 minutes at 250 constant volts in 1× Tris/Glycine buffer with 4 μL of ladder and 12 μL of each sample loaded for each blot. Protein was transferred from gels to NC with BioRad Turbo dry-transfer unit with the Turbo/midi default program. All blots were rinsed with ddH2O and blocked for 1 hour at room temperature in 5% BSA in TBST (0.1%) on rocker. Blots were exposed to primary antibody in 5% BSA in TBST (0.1%) overnight at 4° C. on rocker (1:1000 for BRM (Cell Signaling Tech. cat #11966) and 1:2000 for alpha-tubulin (Cell Signaling Tech. cat #3873), a control protein. Blot was washed with TBST (0.1%) three times for 5 minutes on rocker at room temperature. Secondary antibody was added, and blots were incubated on a room temperature rocker for 1 hour with 1:18,000 anti-rabbit-HRP and/or anti-mouse-HRP in 5% BSA in TBST (0.1%). Blots were washed three times in TBST (0.1%) for 5 minutes at room temperature on the rocker. Signal was developed with Femto Maximum Sensitivity substrate for 4 minutes and blots read on ChemiDoc™.
as §1, with “DC50),” for “DC50)”, “10×” for “10× target”, “compound” for “compound concentration”
For processing, the plates were removed from incubator, the media was removed, and immediately 200 μL of cold (4° C.) DPBS was added to all wells. DPBS was then removed, and 50 μL of 4% paraformaldehyde (PFA) in DPBS (4° C.) was added to all wells, and the plates were incubated at room temperature for 20 minutes. PFA was then removed, and 200 μL of TBS-T containing 0.5% Triton X-100 was added to all wells, and the plates were incubated at room temperature for 30 minutes. TBS-T containing 0.5% Triton X-100 was then removed, and 50 μL of Li-Cor blocking solution was added, and the plates were incubated at room temperature for a minimum of one hour. The blocking solution was removed, and 50 μL of Li-Cor blocking solution containing primary antibody cocktail was added (1:1000 for BRM (Cell Signaling Tech. cat #11966) and 1:2000 for alpha-tubulin (Sigma cat #T6074), a control protein. Plates were then placed in cold room until the next day.
The next day plates were washed three times with TBS-T, 200 μL per well. Fifty […] of secondary antibody cocktail in LI-COR blocking solution (anti-rabbit_800 nm and anti-mouse_680 nm) was added to all wells (diluted 1:5000). The plates were incubated at room temperature for at least one hour while protected from light. The plates were washed twice with TBS-T, 200 μL per well.
To read each plate TBS-T was removed, and each plate was inverted tapped on a paper towel. […]

T1 sequence (P51531 whole entry): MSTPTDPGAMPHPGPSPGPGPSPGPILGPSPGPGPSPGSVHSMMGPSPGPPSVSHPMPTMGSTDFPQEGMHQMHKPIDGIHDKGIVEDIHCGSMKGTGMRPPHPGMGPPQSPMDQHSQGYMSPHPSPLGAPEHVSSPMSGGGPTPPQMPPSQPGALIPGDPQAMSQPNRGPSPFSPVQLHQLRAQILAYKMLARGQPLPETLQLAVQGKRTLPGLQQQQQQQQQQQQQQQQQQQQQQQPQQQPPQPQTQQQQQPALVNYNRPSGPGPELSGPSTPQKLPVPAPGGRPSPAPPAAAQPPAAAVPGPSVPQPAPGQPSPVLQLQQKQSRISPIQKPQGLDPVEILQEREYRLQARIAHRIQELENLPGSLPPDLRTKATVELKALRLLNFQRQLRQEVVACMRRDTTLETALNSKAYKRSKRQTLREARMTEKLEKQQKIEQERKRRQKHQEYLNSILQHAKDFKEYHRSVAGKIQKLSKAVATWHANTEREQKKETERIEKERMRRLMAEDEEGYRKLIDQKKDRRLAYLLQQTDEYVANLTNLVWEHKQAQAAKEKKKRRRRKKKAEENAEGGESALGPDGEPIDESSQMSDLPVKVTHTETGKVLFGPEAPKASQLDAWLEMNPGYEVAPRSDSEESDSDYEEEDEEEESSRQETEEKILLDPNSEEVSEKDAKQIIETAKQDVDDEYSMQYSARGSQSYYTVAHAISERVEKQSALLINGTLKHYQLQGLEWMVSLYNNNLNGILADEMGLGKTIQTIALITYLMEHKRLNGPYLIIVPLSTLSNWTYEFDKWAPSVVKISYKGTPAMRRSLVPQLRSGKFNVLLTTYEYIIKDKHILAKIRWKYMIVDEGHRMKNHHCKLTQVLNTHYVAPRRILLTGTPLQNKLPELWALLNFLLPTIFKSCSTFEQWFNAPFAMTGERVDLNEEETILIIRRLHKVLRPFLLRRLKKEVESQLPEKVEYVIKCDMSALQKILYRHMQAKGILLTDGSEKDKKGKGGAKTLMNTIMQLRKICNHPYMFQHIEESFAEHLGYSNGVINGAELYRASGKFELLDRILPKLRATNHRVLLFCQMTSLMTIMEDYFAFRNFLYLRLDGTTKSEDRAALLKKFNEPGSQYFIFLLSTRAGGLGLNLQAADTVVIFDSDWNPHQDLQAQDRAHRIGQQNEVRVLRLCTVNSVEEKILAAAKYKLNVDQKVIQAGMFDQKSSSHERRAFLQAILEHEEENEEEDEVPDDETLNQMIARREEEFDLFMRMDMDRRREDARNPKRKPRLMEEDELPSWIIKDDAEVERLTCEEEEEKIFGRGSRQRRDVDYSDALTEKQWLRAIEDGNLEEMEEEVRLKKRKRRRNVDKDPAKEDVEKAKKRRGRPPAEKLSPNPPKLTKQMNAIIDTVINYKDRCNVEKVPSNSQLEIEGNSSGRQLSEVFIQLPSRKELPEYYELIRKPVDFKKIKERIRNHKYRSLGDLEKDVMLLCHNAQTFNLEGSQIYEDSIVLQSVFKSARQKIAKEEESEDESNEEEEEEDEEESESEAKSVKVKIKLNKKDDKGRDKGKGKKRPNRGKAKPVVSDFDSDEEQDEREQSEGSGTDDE

In the case of `CC(C)[C@@H](C(=O)N1C[C@H](O)C[C@H]1C(=O)N[C@@H](C)c1ccc(C#N)cc1)c1cc(N2CCC(CN3CCC(O[C@H]4C[C@H](Oc5cc(N6CC7CCC(C6)N7c6cc(-c7ccccc7O)nnc6N)ccn5)C4)CC3)CC2)no1` [Compound 15, (2S,4R)-N-[(1S)-1-(4-cyanophenyl)ethyl]-4-hydroxy-1-[(2R)-3-methyl-2-{3-[4-({4-[(1r,3r)-3-[(4-{8-[3-amino-6-(2-hydroxyphenyl)pyridazin-4-yl]-3,8-diazabicyclo[3.2.1]octan-3-yl}pyridin-2-yl)oxy]cyclobutoxy]piperidin-1-yl}methyl)piperidin-1-yl]-1,2-oxazol-5-yl}butanoyl]pyrrolidine-2-carboxamide], the DC50 is reported as 2.5 to 10 nM and the Dmax is reported as over 75%.

For `CC(C)[C@@H](C(=O)N1C[C@H](O)C[C@H]1C(=O)N[C@@H](C)c1ccc(C#N)cc1)c1cc(N2CCC(CN3CCC(O[C@H]4C[C@H](Oc5cc(N6C7CCCC6CN(c6cc(-c8ccccc8O)nnc6N)C7)ccn5)C4)CC3)CC2)no1` [Compound 16, (2S,4R)-N-[(1S)-1-(4-cyanophenyl)ethyl]-4-hydroxy-1-[(2R)-3-methyl-2-{3-[4-({4-[(1r,3r)-3-[(4-{3-[3-amino-6-(2-hydroxyphenyl)pyridazin-4-yl]-3,9-diazabicyclo[3.3.1]nonan-9-yl}pyridin-2-yl)oxy]cyclobutoxy]piperidin-1-yl}methyl)piperidin-1-yl]-1,2-oxazol-5-yl}butanoyl]pyrrolidine-2-carboxamide], the DC50 was under 2.5 nM and the Dmax was over 75%.

`CC(C)[C@@H](C(=O)N1C[C@H](O)C[C@H]1C(=O)N[C@@H](C)c1ccc(C#N)cc1)c1cc(N2CCC(CN3CCC(O[C@H]4C[C@H](Oc5cc(N6C7CC6CN(c6cc(-c8ccccc8O)nnc6N)C7)ccn5)C4)CC3)CC2)no1` [Compound 17, (2S,4R)-N-[(1S)-1-(4-cyanophenyl)ethyl]-4-hydroxy-1-[(2R)-3-methyl-2-{3-[4-({4-[(1r,3r)-3-[(4-{3-[3-amino-6-(2-hydroxyphenyl)pyridazin-4-yl]-3,6-diazabicyclo[3.1.1]heptan-6-yl}pyridin-2-yl)oxy]cyclobutoxy]piperidin-1-yl}methyl)piperidin-1-yl]-1,2-oxazol-5-yl}butanoyl]pyrrolidine-2-carboxamide] gave a DC50 of under 2.5 nM and a Dmax of over 75%.

`Cc1ncsc1-c1ccc([C@H](C)NC(=O)[C@@H]2C[C@@H](O)CN2C(=O)[C@H](c2cc(N3C4CCC3CC(CN3CCC(O[C@H]5C[C@H](Oc6cc(N7C8CCC7CN(c7cc(-c9ccccc9O)nnc7N)C8)ccn6)C5)CC3)C4)no2)C(C)C)cc1` (stereo partly drawn) [Compound 18, (2S,4R)-4-hydroxy-N-[(1S)-1-[4-(4-methyl-1,3-thiazol-5-yl)phenyl]ethyl]-1-[(2S)-3-methyl-2-{3-[3-({4-[(1r*,3r*)-3-[(4-{3-[3-amino-6-(2-hydroxyphenyl)pyridazin-4-yl]-3,8-diazabicyclo[3.2.1]octan-8-yl}pyridin-2-yl)oxy]cyclobutoxy]piperidin-1-yl}methyl)-8-azabicyclo[3.2.1]octan-8-yl]-1,2-oxazol-5-yl}butanoyl]pyrrolidine-2-carboxamide] gave a DC50 of at least 30 nM.

`Cc1ncsc1-c1ccc([C@H](C)NC(=O)[C@@H]2C[C@@H](O)CN2C(=O)[C@@H](c2cc(N3CCC(CN4CCC(O)(C#C[C@H]5C[C@H](Oc6cc(N7C8CCC7CN(c7cc(-c9ccccc9O)nnc7N)C8)ccn6)C5)CC4)CC3)no2)C(C)C)cc1` [Compound 19, (2S,4R)-4-hydroxy-1-[(2R)-2-(3-{4-[(4-hydroxy-4-{2-[(1r,3r)-3-[(4-{3-[3-amino-6-(2-hydroxyphenyl)pyridazin-4-yl]-3,8-diazabicyclo[3.2.1]octan-8-yl}pyridin-2-yl)oxy]cyclobutyl]ethynyl}piperidin-1-yl)methyl]piperidin-1-yl}-1,2-oxazol-5-yl)-3-methylbutanoyl]-N-[(1S)-1-[4-(4-methyl-1,3-thiazol-5-yl)phenyl]ethyl]pyrrolidine-2-carboxamide] showed a DC50 of under 2.5 nM and a Dmax of over 75%.

Compound `Cc1ncsc1-c1ccc([C@H](C)NC(=O)[C@@H]2C[C@@H](O)CN2C(=O)[C@@H](c2cc(N3CCC(CN4CCC(O[C@H]5C[C@H](N6CCC(C#N)(CN7C8CCC7CN(c7cc(-c9ccccc9O)nnc7N)C8)CC6)C5)CC4)CC3)no2)C(C)C)cc1` [Compound 20, (2S,4R)-4-hydroxy-N-[(1S)-1-[4-(4-methyl-1,3-thiazol-5-yl)phenyl]ethyl]-1-[(2R)-3-methyl-2-{3-[4-({4-[(1r,3r)-3-[4-({3-[3-amino-6-(2-hydroxyphenyl)pyridazin-4-yl]-3,8-diazabicyclo[3.2.1]octan-8-yl}methyl)-4-cyanopiperidin-1-yl]cyclobutoxy]piperidin-1-yl}methyl)piperidin-1-yl]-1,2-oxazol-5-yl}butanoyl]pyrrolidine-2-carboxamide] has a DC50 of under 2.5 nM and a Dmax of over 75%.

With `Cc1ncsc1-c1ccc([C@H](C)NC(=O)[C@@H]2C[C@@H](O)CN2C(=O)[C@@H](c2cc(N3C4CCC3CC(CN3CCC(O[C@H]5C[C@H](Oc6cc(N7C8CCC7CN(c7cc(-c9ccccc9O)nnc7N)C8)ccn6)C5)CC3)C4)no2)C(C)C)cc1` (stereo partly drawn) [Compound 21, (2S,4R)-4-hydroxy-N-[(1S)-1-[4-(4-methyl-1,3-thiazol-5-yl)phenyl]ethyl]-1-[(2R)-3-methyl-2-{3-[3-({4-[(1r,3r)-3-[(4-{3-[3-amino-6-(2-hydroxyphenyl)pyridazin-4-yl]-3,8-diazabicyclo[3.2.1]octan-8-yl}pyridin-2-yl)oxy]cyclobutoxy]piperidin-1-yl}methyl)-8-azabicyclo[3.2.1]octan-8-yl]-1,2-oxazol-5-yl}butanoyl]pyrrolidine-2-carboxamide] the DC50 was under 2.5 nM and the Dmax was over 75%.

Work on `Cc1ncsc1-c1ccc([C@H](C)NC(=O)[C@@H]2C[C@@H](O)CN2C(=O)[C@@H](c2cc(N3CCC(CN4CCC(O[C@H]5C[C@H](N6CCC(C(C)(C)N7C8CCC7CN(c7cc(-c9ccccc9O)nnc7N)C8)CC6)C5)CC4)CC3)no2)C(C)C)cc1` [Compound 22, (2S,4R)-4-hydroxy-N-[(1S)-1-[4-(4-methyl-1,3-thiazol-5-yl)phenyl]ethyl]-1-[(2R)-3-methyl-2-{3-[4-({4-[(1r,3r)-3-[4-(2-{3-[3-amino-6-(2-hydroxyphenyl)pyridazin-4-yl]-3,8-diazabicyclo[3.2.1]octan-8-yl}propan-2-yl)piperidin-1-yl]cyclobutoxy]piperidin-1-yl}methyl)piperidin-1-yl]-1,2-oxazol-5-yl}butanoyl]pyrrolidine-2-carboxamide] yielded a DC50 of under 2.5 nM and a Dmax of over 75%.

`Cc1ncsc1-c1ccc([C@H](C)NC(=O)[C@@H]2C[C@@H](O)CN2C(=O)[C@@H](c2cc(N3CCC(CN4CCC(O[C@H]5C[C@H](N6CCO[C@H](CN7C8CCC7CN(c7cc(-c9ccccc9O)nnc7N)C8)C6)C5)CC4)CC3)no2)C(C)C)cc1` [Compound 23, (2S,4R)-4-hydroxy-N-[(1S)-1-[4-(4-methyl-1,3-thiazol-5-yl)phenyl]ethyl]-1-[(2R)-3-methyl-2-{3-[4-({4-[(1r,3r)-3-[(2S)-2-({3-[3-amino-6-(2-hydroxyphenyl)pyridazin-4-yl]-3,8-diazabicyclo[3.2.1]octan-8-yl}methyl)morpholin-4-yl]cyclobutoxy]piperidin-1-yl}methyl)piperidin-1-yl]-1,2-oxazol-5-yl}butanoyl]pyrrolidine-2-carboxamide] was tested, and the DC50 was under 2.5 nM and the Dmax was over 75%.
